pIC50: −log10 of the molar value.

T1 sequence (P13569 whole entry): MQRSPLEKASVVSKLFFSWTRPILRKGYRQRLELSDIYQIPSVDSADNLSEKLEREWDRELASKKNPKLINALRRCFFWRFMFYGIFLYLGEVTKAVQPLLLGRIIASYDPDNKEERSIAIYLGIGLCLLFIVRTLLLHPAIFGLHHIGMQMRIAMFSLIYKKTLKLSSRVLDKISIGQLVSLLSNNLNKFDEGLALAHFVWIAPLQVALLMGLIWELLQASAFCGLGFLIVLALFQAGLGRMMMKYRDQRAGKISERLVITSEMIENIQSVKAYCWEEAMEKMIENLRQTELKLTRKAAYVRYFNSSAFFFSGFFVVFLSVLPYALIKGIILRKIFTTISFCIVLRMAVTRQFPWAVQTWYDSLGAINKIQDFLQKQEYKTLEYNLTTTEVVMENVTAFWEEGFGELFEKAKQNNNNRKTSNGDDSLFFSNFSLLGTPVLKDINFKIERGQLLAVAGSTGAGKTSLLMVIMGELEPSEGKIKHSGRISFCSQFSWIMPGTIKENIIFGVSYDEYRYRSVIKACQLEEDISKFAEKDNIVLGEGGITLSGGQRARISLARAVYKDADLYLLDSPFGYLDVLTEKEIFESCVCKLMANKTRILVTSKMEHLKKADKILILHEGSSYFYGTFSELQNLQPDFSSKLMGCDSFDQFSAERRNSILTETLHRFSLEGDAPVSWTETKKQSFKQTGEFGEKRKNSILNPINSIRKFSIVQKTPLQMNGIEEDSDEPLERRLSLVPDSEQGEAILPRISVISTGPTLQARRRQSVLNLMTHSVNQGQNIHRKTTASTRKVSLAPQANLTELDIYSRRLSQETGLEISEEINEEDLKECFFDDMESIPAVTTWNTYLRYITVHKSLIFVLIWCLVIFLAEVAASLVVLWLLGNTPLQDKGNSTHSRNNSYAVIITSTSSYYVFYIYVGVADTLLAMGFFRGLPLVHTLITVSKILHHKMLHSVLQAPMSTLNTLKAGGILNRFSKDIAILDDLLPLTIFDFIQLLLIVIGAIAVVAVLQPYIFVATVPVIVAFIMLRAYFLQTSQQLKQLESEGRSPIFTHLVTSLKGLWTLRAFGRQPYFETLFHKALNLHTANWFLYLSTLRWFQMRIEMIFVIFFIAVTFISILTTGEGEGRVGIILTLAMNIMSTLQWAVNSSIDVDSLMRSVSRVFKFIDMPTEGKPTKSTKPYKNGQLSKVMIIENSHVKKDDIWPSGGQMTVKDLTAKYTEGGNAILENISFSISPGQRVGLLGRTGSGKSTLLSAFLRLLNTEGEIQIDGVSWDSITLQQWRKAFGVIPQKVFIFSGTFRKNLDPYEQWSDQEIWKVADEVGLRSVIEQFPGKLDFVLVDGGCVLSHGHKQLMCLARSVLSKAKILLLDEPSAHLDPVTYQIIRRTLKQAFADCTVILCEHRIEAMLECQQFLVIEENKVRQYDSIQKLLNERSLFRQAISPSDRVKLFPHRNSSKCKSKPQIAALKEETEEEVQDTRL

The first experiment concerns the target T1, CFTR (Homo sapiens, UniProt P13569).
T1 construct: endogenous in cells; host or cells: T84 human colonic cells (ECACC)
Nature of the experiment: T84 assay (FLIPR membrane potential dye, forskolin/IBMX-stimulated CFTR channel activity). Format: cell-based. The note with it: imidazole and triazole-containing compounds (Tables 13, 14, 14′), read-out: IC50 (μM) (T84 assay). How it is done:
(§1) For example, Human colonic T84 cells can be acquired from the European Collection of Cell Cultures (ECACC) and grown in standard culture conditions as described by the supplier. On the day before assay 25,000 T84 cells per well are plated into standard black walled, clear bottom 384-well assay plates in standard growth medium consisting of DMEM:F12 with 10% FBS and incubated overnight. On the day of the assay the plates are washed using a standard assay buffer (HBSS with 10 mM Hepes) and incubated for 15 minutes in serum free cell culture medium before the addition of a commercially available membrane potential sensitive fluorescent dye (FLIPRRed membrane potential dye, Molecular Devices Corporation). T84 cells are incubated with the FLIPRRed membrane potential dye for 45 minutes in the presence and absence of test compound before being transferred to a commercially available fluorescence imaging plate reader (FLIPR384, Molecular Devices Corporation). Fluorescence levels are monitored continuously every second for 150 seconds; after an initial 10 second baseline, CFTR channel activity is stimulated through the addition of 10 μM forskolin in the presence of 100 μM of the phosphodiesterase inhibitor iso-butyl-methylxanthine (IBMX). Addition of the forskolin leads to the activation of intracellular adenylyl cylase 1, elevating cAMP levels and results in the phosphorylation and opening of CFTR anion channels. CFTR channel opening causes chloride ion efflux and subsequent depolarization of the cells, which is measured by an increase in fluorescence. CFTR inihibitor compounds prevent cell depolarization and the associatred increase in fluorescence.
as §1, with “Human colonic” for “For example, Human colonic”, “T84 cells are acquired from” for “T84 cells can be acquired from”, “(ECACC) and are grown in” for “(ECACC) and grown in”, “10 μM Forskolin in the” for “10 μM forskolin in the”, “fluorescence. CFTR inhibitor compounds prevent” for “fluorescence. CFTR inihibitor compounds prevent”, “and the associated increase in” for “and the associatred increase in”
In the case of `CN(C)c1cccc(CNC(=O)c2ncn(-c3cc(Cl)c(O)c(Cl)c3)n2)c1` [26i, 1-(3,5-dichloro-4-hydroxyphenyl)-N-(3-(dimethylamino)benzyl)-1H-1,2,4-triazole-3-carboxamide], the concentration for half-maximal inhibition (IC50) amounted to 3.92 µM.

As to `CN(C(=O)c1ncn(-c2cc(Cl)c(O)c(Cl)c2)n1)c1ccc(OC(F)(F)F)cc1` [21i], the IC50 was 15.7 µM.

With `Cc1noc(C)c1CCNC(=O)c1ncn(-c2cc(Cl)c(O)c(Cl)c2)n1` [74i, 1-(3,5-dichloro-4-hydroxyphenyl)-N-(2-(3,5-dimethylisoxazol-4-yl)ethyl)-1H-1,2,4-triazole-3-carboxamide], the IC50 was 1.28 µM.

As for `O=C(NCc1ccccc1OC(F)F)c1ncn(-c2cc(Cl)c(O)c(Cl)c2)n1` [41i, 1-(3,5-dichloro-4-hydroxyphenyl)-N-(2-(difluoromethoxy)benzyl)-1H-1,2,4-triazole-3-carboxamide], the IC50 was found to be 22.4 µM.

The experiment is the same for the next values; noted with them: isoxazole-containing compounds (Table 10, 10′, 11, 11′), read-out: IC50.
Consider `CN(Cc1ccc2c(c1)OCO2)C(=O)c1cc(-c2cc(Cl)c(O)c(Cl)c2)on1` [8g, N-(benzo[d][1,3]dioxol-5-ylmethyl)-5-(3,5-dichloro-4-hydroxyphenyl)-N-methylisoxazole-3-carboxamide], for which the pIC50 was 4.84.

The experiment is the same for the next values; noted with them: oxadiazole-containing compounds (a series), average of at least 2 runs unless annotated n = 1, read-out: IC50.
Take `CN(Cc1ccc(Oc2ccccc2)cc1)C(=O)c1nc(-c2cc(Cl)c(O)c(Cl)c2)no1` [142a, 3-(3,5-dichloro-4-hydroxyphenyl)-N-methyl-N-(4-phenoxybenzyl)-1,2,4-oxadiazole-5-carboxamide]: the pIC50 was 4.99.

In the case of `O=C(NCCC(c1ccccc1)c1ccccc1)c1nc(-c2cc(Br)c(O)c(Br)c2)no1` [14a, 3-(3,5-dibromo-4-hydroxyphenyl)-N-(3,3-diphenylpropyl)-1,2,4-oxadiazole-5-carboxamide], the pIC50 was 5.05.

For `O=C(NCc1ccc(Oc2cc(F)cc(Br)c2)cc1)c1nc(-c2cc(Cl)c(O)c(Cl)c2)no1` [201a, N-(4-(3-bromo-5-fluorophenoxy)benzyl)-3-(3,5-dichloro-4-hydroxyphenyl)-1,2,4-oxadiazole-5-carboxamide], the pIC50 was 4.75.

As for `O=C(c1nc(-c2cc(Cl)c(O)c(Cl)c2)no1)N(Cc1cccc(C(F)(F)F)c1)Cc1cccc(C(F)(F)F)c1` [101a, 3-(3,5-dichloro-4-hydroxyphenyl)-N,N-bis(3-(trifluoromethyl)benzyl)-1,2,4-oxadiazole-5-carboxamide], the pIC50 is 5.17.

Consider `O=C(NC(c1ccccc1)c1ccccc1)c1nc(-c2cc(Cl)c(O)c(Cl)c2)no1` [15a, N-benzhydryl-3-(3,5-dichloro-4-hydroxyphenyl)-1,2,4-oxadiazole-5-carboxamide], for which the pIC50 is 5.05.

Consider `O=C(c1nc(-c2cc(Br)c(O)c(Br)c2)no1)N1CCN(c2cccc(F)c2)CC1` [32a, (3-(3,5-dibromo-4-hydroxyphenyl)-1,2,4-oxadiazol-5-yl)(4-(3-fluorophenyl)piperazin-1-yl)methanone], for which the pIC50 was 4.76.

In the case of `CC(C)(C)C(=O)CN(Cc1cccc(C(F)(F)F)c1)C(=O)c1nc(-c2cc(Cl)c(O)c(Cl)c2)no1` [91a, 3-(3,5-dichloro-4-hydroxyphenyl)-N-(3,3-dimethyl-2-oxobutyl)-N-(3-(trifluoromethyl)benzyl)-1,2,4-oxadiazole-5-carboxamide], the pIC50 was 5.67.

As to `O=C(NCc1ccc(Oc2ccc(F)cc2)cc1)c1nc(-c2cc(Cl)c(O)c(Cl)c2)no1` [171a, 3-(3,5-dichloro-4-hydroxyphenyl)-N-(4-(4-fluorophenoxy)benzyl)-1,2,4-oxadiazole-5-carboxamide], the pIC50 was 5.13.

Turning to `CC(C)(C)C(=O)CN(Cc1ccc(Oc2ccccc2)cc1)C(=O)c1nc(-c2cc(Cl)c(O)c(Cl)c2)no1` [165a, 3-(3,5-dichloro-4-hydroxyphenyl)-N-(3,3-dimethyl-2-oxobutyl)-N-(4-phenoxybenzyl)-1,2,4-oxadiazole-5-carboxamide], the pIC50 is 4.94.

With `O=C(NCc1cccc(Oc2ccccc2)c1)c1nc(-c2cc(Cl)c(O)c(Cl)c2)no1` [145a, 3-(3,5-dichloro-4-hydroxyphenyl)-N-(3-phenoxybenzyl)-1,2,4-oxadiazole-5-carboxamide], the pIC50 is 5.01.

With `O=C(CN(Cc1cccc(C(F)(F)F)c1)C(=O)c1nc(-c2cc(Cl)c(O)c(Cl)c2)no1)c1ccccc1` [90a, 3-(3,5-dichloro-4-hydroxyphenyl)-N-(2-oxo-2-phenylethyl)-N-(3-(trifluoromethyl)benzyl)-1,2,4-oxadiazole-5-carboxamide], the negative logarithm of the IC50 (pIC50) is 5.08.

With `O=C(NCC(c1ccccc1)c1ccccc1)c1nc(-c2cc(Br)c(O)c(Br)c2)no1` [9a, 3-(3,5-dibromo-4-hydroxyphenyl)-N-(2,2-diphenylethyl)-1,2,4-oxadiazole-5-carboxamide], the pIC50 was 5.14.

As to `CN(Cc1cccc(-c2cncnc2)c1)C(=O)c1nc(-c2cc(Cl)c(O)c(Cl)c2)no1` [177a, 3-(3,5-dichloro-4-hydroxyphenyl)-N-methyl-N-(3-(pyrimidin-5-yl)benzyl)-1,2,4-oxadiazole-5-carboxamide], the negative-log IC50 (pIC50) was 4.79.

`O=C(NCc1cccc(F)c1)c1nc(-c2cc(Br)c(O)c(Br)c2)no1` [23a, 3-(3,5-dibromo-4-hydroxyphenyl)-N-(3-fluorobenzyl)-1,2,4-oxadiazole-5-carboxamide]: the negative-log IC50 (pIC50) was 4.90.

For `O=C(NCc1ccc(Oc2cccc(Cl)c2)cc1)c1nc(-c2cc(Cl)c(O)c(Cl)c2)no1` [179a, N-(4-(3-chlorophenoxy)benzyl)-3-(3,5-dichloro-4-hydroxyphenyl)-1,2,4-oxadiazole-5-carboxamide], the pIC50 was 4.97.

For `O=C(c1nc(-c2cc(Br)c(O)c(Br)c2)no1)N(CCO)Cc1ccccc1` [122a, N-benzyl-3-(3,5-dibromo-4-hydroxyphenyl)-N-(2-hydroxyethyl)-1,2,4-oxadiazole-5-carboxamide], the pIC50 was 4.70.

Regarding `O=C(NCc1cccc(-n2cccn2)c1)c1noc(-c2cc(Cl)c(O)c(Cl)c2)n1` [161a, N-(3-(1H-pyrazol-1-yl)benzyl)-5-(3,5-dichloro-4-hydroxyphenyl)-1,2,4-oxadiazole-3-carboxamide], the pIC50 was 5.21.

Consider `O=C(NCc1ccc(Cl)cc1)c1nc(-c2cc(Br)c(O)c(Br)c2)no1` [40a, N-(4-chlorobenzyl)-3-(3,5-dibromo-4-hydroxyphenyl)-1,2,4-oxadiazole-5-carboxamide], for which the pIC50 was 4.57.

In the case of `O=C(NCc1cccc(-c2ncccn2)c1)c1nc(-c2cc(Cl)c(O)c(Cl)c2)no1` [147a, 3-(3,5-dichloro-4-hydroxyphenyl)-N-(3-(pyrimidin-2-yl)benzyl)-1,2,4-oxadiazole-5-carboxamide], the pIC50 is 4.52.

On to `O=C(c1nc(-c2cc(Cl)c(O)c(Cl)c2)no1)N(Cc1ccc(Oc2ccccc2)cc1)Cc1cccnc1` [168a, 3-(3,5-dichloro-4-hydroxyphenyl)-N-(4-phenoxybenzyl)-N-(pyridin-3-ylmethyl)-1,2,4-oxadiazole-5-carboxamide], for which the pIC50 was 5.68.

Consider `Cc1cncc(Oc2cccc(CN(C)C(=O)c3nc(-c4cc(Cl)c(O)c(Cl)c4)no3)c2)n1` [172a, 3-(3,5-dichloro-4-hydroxyphenyl)-N-methyl-N-(3-(6-methylpyrazin-2-yloxy)benzyl)-1,2,4-oxadiazole-5-carboxamide], for which the pIC50 was 5.36.

Consider `CN(Cc1cccc(OC(F)(F)F)c1)C(=O)c1nc(-c2cc(Br)c(O)c(Br)c2)no1` [38a, 3-(3,5-dibromo-4-hydroxyphenyl)-N-methyl-N-(3-(trifluoromethoxy)benzyl)-1,2,4-oxadiazole-5-carboxamide], for which the pIC50 is 5.60.

For `CN(Cc1ccc(-c2ncccn2)cc1)C(=O)c1nc(-c2cc(Cl)c(O)c(Cl)c2)no1` [189a, 3-(3,5-dichloro-4-hydroxyphenyl)-N-methyl-N-(4-(pyrimidin-2-yl)benzyl)-1,2,4-oxadiazole-5-carboxamide], the pIC50 was 4.77.

The same experiment, now with this note: thiadiazole-containing compounds (Table 12), read-out: IC50.
On to `Oc1c(Cl)cc(-c2nnc(COc3cccc(C(F)(F)F)c3)s2)cc1Cl` [7h, 2,6-dichloro-4(5-((3-(trifluoromethyl)phenoxy)methyl)-1,3,4-thiadiazol-2-yl)phenol], for which the pIC50 was 4.63.

The IC50 is the concentration needed to halve the response being measured. A word on the pIC50: it is −log10 of the IC50, conventionally taken in molar units.

(Values after US20100144733A1, “Compounds, compositions and methods comprising heteroaromatic derivatives” (Institute for OneWorld Health, priority 2008, published 2010).)
